From ChEMBL document CHEMBL5727484, “Compounds and methods for inhibiting NHE-mediated antiport in the treatment of disorders associated with fluid retention or salt overload and gastrointestinal tract disorders” (2020)

Assay: Cell-Based Assay of NHE-3 Activity: Rat NHE-3-mediated Na+-dependent H+ antiport was measured using a modification of the pH sensitive dye method originally reported by Tsien (Proc. Natl. Acad. Sci. USA. (1984) 81(23): 7436-7440). Opossum kidney (OK) cells were obtained from the ATCC and propagated per their instructions. The rat NHE-3 gene was introduced into OK cells via electroporation, seeded into 96 well plates and grown overnight. Medium was aspirated from the wells, cells were washed twice with NaCl-HEPES buffer (100 mM NaCl, 50 mM HEPES, 10 mM glucose, 5 mM KCl, 2 mM CaCl2, 1 mM MgCl2, pH 7.4), then incubated for 30 min at room temperature with NH4Cl-HEPES buffer (20 mM NH4Cl, 80 mM NaCl, 50 mM HEPES, 5 mM KCl, 2 mM CaCl2, 1 mM MgCl2, pH 7.4) containing 5 uM BCECF-AM (Invitrogen). Cells were washed twice with Ammonium free, Na+-free HEPES (100 mM choline, 50 mM HEPES, 10 mM glucose, 5 mM KCl, 2 mM CaCl2, 1 mM MgCl2, pH 7.4) and incubated in the same buffer for 10 minutes at room temperature to lower intracellular pH. […] Initial rates were plotted as the average 3-6 replicates, and pIC50 values were estimated using GraphPad Prism.

SMILES	IC50
CN1Cc2c(Cl)cc(Cl)cc2C(c2cccc(S(=O)(=O)NCCOCCOCCOCCNC(=O)[C@@H](O)[C@H](O)C(=O)NCCOCCOCCOCCNS(=O)(=O)c3cccc(C4CN(C)Cc5c(Cl)cc(Cl)cc54)c3)c2)C1 (stereo not given in full)	< 0.1 µM
CN1Cc2c(Cl)cc(Cl)cc2C(c2ccc(S(=O)(=O)NCCOCCOCCNC(=O)C(O)C(O)C(=O)NCCOCCOCCNS(=O)(=O)c3ccc(C4CN(C)Cc5c(Cl)cc(Cl)cc54)cc3)cc2)C1 (stereo not given)	< 0.1 µM
CN1Cc2c(Cl)cc(Cl)cc2C(c2cccc(S(=O)(=O)NCCOCCOCCNC(=O)c3ccc(C(=O)NCCOCCOCCNS(=O)(=O)c4cccc(C5CN(C)Cc6c(Cl)cc(Cl)cc65)c4)cc3)c2)C1 (stereo not given)	in the range around 3.16 µM
CN1Cc2c(Cl)cc(Cl)cc2C(c2ccc(S(=O)(=O)NCCOCCOCCOCCNC(=O)NCCOCCOCCOCCNS(=O)(=O)c3ccc(C4CN(C)Cc5c(Cl)cc(Cl)cc54)cc3)cc2)C1 (stereo not given)	< 0.1 µM
CN1Cc2c(Cl)cc(Cl)cc2C(c2cccc(S(=O)(=O)NCCOCCOCCOCCNC(=O)CN(CC(=O)NCCOCCOCCOCCNS(=O)(=O)c3cccc(C4CN(C)Cc5c(Cl)cc(Cl)cc54)c3)CC(=O)NCCOCCOCCOCCNS(=O)(=O)c3cccc(C4CN(C)Cc5c(Cl)cc(Cl)cc54)c3)c2)C1 (stereo not given)	in the range around 0.316 µM
CN1Cc2c(Cl)cc(Cl)cc2C(c2cccc(S(=O)(=O)NCCOCCOCCOCCNC(=O)C(O)C(O)C(=O)NCCOCCOCCOCCNS(=O)(=O)c3cccc(C4CN(C)Cc5c(Cl)cc(Cl)cc54)c3)c2)C1 (stereo not given)	< 0.1 µM
CN1Cc2c(Cl)cc(Cl)cc2C(c2cccc(S(=O)(=O)NCCOCCOCCNC(=O)COCC(=O)NCCOCCOCCNS(=O)(=O)c3cccc(C4CN(C)Cc5c(Cl)cc(Cl)cc54)c3)c2)C1 (stereo not given)	< 0.1 µM
CN1Cc2c(Cl)cc(Cl)cc2C(c2ccc(S(=O)(=O)NCCOCCOCCNC(=O)c3ccc(C(=O)NCCOCCOCCNS(=O)(=O)c4ccc(C5CN(C)Cc6c(Cl)cc(Cl)cc65)cc4)cc3)cc2)C1 (stereo not given)	< 10 µM
NC(N)=Nc1nc(-c2ccc(N3CCN(CCO)CC3)cc2)c2cc(Cl)ccc2n1	in the range around 0.316 µM
CN1Cc2c(Cl)cc(Cl)cc2[C@H](c2cccc(S(=O)(=O)NCCOCCOCCNC(=O)Nc3ccc(NC(=O)NCCOCCOCCNS(=O)(=O)c4cccc([C@@H]5CN(C)Cc6c(Cl)cc(Cl)cc65)c4)cc3)c2)C1 (single isomer, unassigned)	< 0.1 µM
CN1Cc2c(Cl)cc(Cl)cc2C(c2ccc(S(=O)(=O)NCCOCCOCCOCCNC(=O)c3ccc(C(=O)NCCOCCOCCOCCNS(=O)(=O)c4ccc(C5CN(C)Cc6c(Cl)cc(Cl)cc65)cc4)cc3)cc2)C1 (stereo not given)	< 10 µM
CN1Cc2c(Cl)cc(Cl)cc2C(c2ccc(NS(=O)(=O)NCCP(=O)(O)O)cc2)C1 (stereo not given)	in the range around 3.16 µM
CN1Cc2c(Cl)cc(Cl)cc2C(c2cccc(S(=O)(=O)NCCOCCOCCNC(=O)NCCCCNC(=O)NCCOCCOCCNS(=O)(=O)c3cccc(C4CN(C)Cc5c(Cl)cc(Cl)cc54)c3)c2)C1 (stereo not given)	< 0.1 µM
CN1Cc2c(Cl)cc(Cl)cc2C(c2cccc(S(=O)(=O)NCCOCCOCCOCCNC(=O)c3cccc(C(=O)NCCOCCOCCOCCNS(=O)(=O)c4cccc(C5CN(C)Cc6c(Cl)cc(Cl)cc65)c4)c3)c2)C1 (stereo not given)	in the range around 0.316 µM
N=C(N)N1CCN(c2ccc(-c3nc(N=C(N)N)nc4ccc(Cl)cc34)cc2)CC1	in the range around 0.316 µM
CN1Cc2c(Cl)cc(Cl)cc2[C@H](c2ccc(S(=O)(=O)NCCOCCOCCOCCNC(=O)NCCCCNC(=O)NCCOCCOCCOCCNS(=O)(=O)c3ccc([C@@H]4CN(C)Cc5c(Cl)cc(Cl)cc54)cc3)cc2)C1 (single isomer, unassigned)	< 0.1 µM
CN1Cc2c(Cl)cc(Cl)cc2C(c2cccc(S(=O)(=O)NCCOCCOCCOCCNC(=O)[C@@H](O)[C@@H](O)C(=O)NCCOCCOCCOCCNS(=O)(=O)c3cccc(C4CN(C)Cc5c(Cl)cc(Cl)cc54)c3)c2)C1 (stereo not given in full)	< 0.1 µM
CN1Cc2c(Cl)cc(Cl)cc2C(c2cccc(S(=O)(=O)NCCOCCOCCOCCNC(=O)NCCCCNC(=O)NCCOCCOCCOCCNS(=O)(=O)c3cccc(C4CN(C)Cc5c(Cl)cc(Cl)cc54)c3)c2)C1 (stereo not given)	< 0.1 µM
CN1Cc2c(Cl)cc(Cl)cc2C(c2cccc(S(=O)(=O)NCCOCCOCCOCCNC(=O)CCCCCCC(=O)NCCOCCOCCOCCNS(=O)(=O)c3cccc(C4CN(C)Cc5c(Cl)cc(Cl)cc54)c3)c2)C1 (stereo not given)	in the range around 0.316 µM
CN1Cc2c(Cl)cc(Cl)cc2C(c2cccc(S(=O)(=O)NCCOCCOCCNC(=O)Nc3ccc(NC(=O)NCCOCCOCCNS(=O)(=O)c4cccc(C5CN(C)Cc6c(Cl)cc(Cl)cc65)c4)cc3)c2)C1 (stereo not given)	< 0.1 µM
O=C(CNCc1ccc(Cl)cc1Cl)c1cccc([N+](=O)[O-])c1	< 10 µM
CN1Cc2c(Cl)cc(Cl)cc2C(c2cccc(S(=O)(=O)NCCOCCOCCOCCNC(=O)NCCOCCOCCOCCNS(=O)(=O)c3cccc(C4CN(C)Cc5c(Cl)cc(Cl)cc54)c3)c2)C1 (stereo not given)	in the range around 0.316 µM
NC(N)=NCCCN1CCN(c2cccc(-c3nc(N=C(N)N)nc4ccc(Cl)cc34)c2)CC1	in the range around 0.316 µM

SMILES	IC50
CN1Cc2c(Cl)cc(Cl)cc2C(c2cccc(S(=O)(=O)NCCOCCOCCNC(=O)[C@H](O)[C@@H](O)C(=O)NCCOCCOCCNS(=O)(=O)c3cccc(C4CN(C)Cc5c(Cl)cc(Cl)cc54)c3)c2)C1 (stereo not given in full)	in the range around 0.316 µM
CN1Cc2c(Cl)cc(Cl)cc2C(c2ccc(S(=O)(=O)NCCOCCOCCNC(=O)NCCOCCOCCNS(=O)(=O)c3ccc(C4CN(C)Cc5c(Cl)cc(Cl)cc54)cc3)cc2)C1 (stereo not given)	< 10 µM
CN1Cc2c(Cl)cc(Cl)cc2C(c2cccc(S(=O)(=O)NCCOCCOCCNC(=O)C(C)(C)C(=O)NCCOCCOCCNS(=O)(=O)c3cccc(C4CN(C)Cc5c(Cl)cc(Cl)cc54)c3)c2)C1 (stereo not given)	in the range around 3.16 µM
CN1Cc2c(Cl)cc(Cl)cc2[C@H](c2ccc(S(=O)(=O)NCCOCCOCCOCCNC(=O)NCCOCCOCCOCCNS(=O)(=O)c3ccc([C@@H]4CN(C)Cc5c(Cl)cc(Cl)cc54)cc3)cc2)C1 (single isomer, unassigned)	< 0.1 µM
CN1Cc2c(Cl)cc(Cl)cc2C(c2cccc(S(=O)(=O)NCCOCCOCCOCCNS(=O)(=O)c3cccc(S(=O)(=O)NCCOCCOCCOCCNS(=O)(=O)c4cccc(C5CN(C)Cc6c(Cl)cc(Cl)cc65)c4)c3)c2)C1 (stereo not given)	in the range around 3.16 µM
CN1Cc2c(Cl)cc(Cl)cc2C(c2cccc(S(=O)(=O)NCCOCCOCCOCCNC(=O)Nc3ccc(NC(=O)NCCOCCOCCOCCNS(=O)(=O)c4cccc(C5CN(C)Cc6c(Cl)cc(Cl)cc65)c4)cc3)c2)C1 (stereo not given)	in the range around 3.16 µM
CN1Cc2c(Cl)cc(Cl)cc2C(c2cccc(S(=O)(=O)NCCOCCOCCOCCNC(=O)c3ccc(C(=O)NCCOCCOCCOCCNS(=O)(=O)c4cccc(C5CN(C)Cc6c(Cl)cc(Cl)cc65)c4)cc3)c2)C1 (stereo not given)	< 0.1 µM
CN1Cc2c(Cl)cc(Cl)cc2C(c2cccc(S(=O)(=O)NCCOCCOCCOCCNC(=O)c3cc(C(=O)NCCOCCOCCOCCNS(=O)(=O)c4cccc(C5CN(C)Cc6c(Cl)cc(Cl)cc65)c4)cc(C(=O)NCCOCCOCCOCCNS(=O)(=O)c4cccc(C5CN(C)Cc6c(Cl)cc(Cl)cc65)c4)c3)c2)C1 (stereo not given)	< 0.1 µM
C/C(=C\c1cc(F)c(Oc2ccc(S(=O)(=O)NCCOCCOCCOCCN)cc2)c(F)c1)C(=O)N=C(N)N	in the range around 0.316 µM
CN1Cc2c(Cl)cc(Cl)cc2C(c2cccc(S(=O)(=O)NCCOCCOCCOCCn3cc(COCc4cn(CCOCCOCCOCCNS(=O)(=O)c5cccc(C6CN(C)Cc7c(Cl)cc(Cl)cc76)c5)nn4)nn3)c2)C1 (stereo not given)	< 0.1 µM
CN1Cc2c(Cl)cc(Cl)cc2C(c2cccc(S(=O)(=O)NCCOCCOCCNC(=O)NCCOCCOCCNS(=O)(=O)c3cccc(C4CN(C)Cc5c(Cl)cc(Cl)cc54)c3)c2)C1 (stereo not given)	< 10 µM
CN1Cc2c(Cl)cc(Cl)cc2C(c2ccc(S(=O)(=O)NCCOCCOCCNC(=O)[C@H](O)[C@@H](O)C(=O)NCCOCCOCCNS(=O)(=O)c3ccc(C4CN(C)Cc5c(Cl)cc(Cl)cc54)cc3)cc2)C1 (stereo not given in full)	in the range around 0.316 µM
NCCCN1CCN(c2cccc(-c3nc(N=C(N)N)nc4ccc(Cl)cc34)c2)CC1	in the range around 0.316 µM
CN1Cc2c(Cl)cc(Cl)cc2C(c2cccc(S(=O)(=O)NCCOCCOCCNC(=O)CCC(=O)NCCOCCOCCNS(=O)(=O)c3cccc(C4CN(C)Cc5c(Cl)cc(Cl)cc54)c3)c2)C1 (stereo not given)	< 0.1 µM
C/C(=C\c1cc(F)c(Oc2ccc(S(=O)(=O)NCCOCCOCCOCCOCCOCCOCCN)cc2)c(F)c1)C(=O)N=C(N)N	in the range around 0.316 µM
C/C(=C\c1cc(F)c(Oc2ccc(S(=O)(=O)NCCOCCOCCOCCNC(=O)CCCCCCC(=O)NCCOCCOCCOCCNS(=O)(=O)c3ccc(Oc4c(F)cc(/C=C(\C)C(=O)N=C(N)N)cc4F)cc3)cc2)c(F)c1)C(=O)N=C(N)N	< 0.1 µM
CN1Cc2c(Cl)cc(Cl)cc2C(c2ccc(S(=O)(=O)NCCOCCOCCOCCNC(=O)C(O)C(O)C(=O)NCCOCCOCCOCCNS(=O)(=O)c3ccc(C4CN(C)Cc5c(Cl)cc(Cl)cc54)cc3)cc2)C1 (stereo not given)	< 0.1 µM
CN1Cc2c(Cl)cc(Cl)cc2C(c2cccc(S(=O)(=O)NCCOCCOCCOCCNC(=O)c3ccccc3C(=O)NCCOCCOCCOCCNS(=O)(=O)c3cccc(C4CN(C)Cc5c(Cl)cc(Cl)cc54)c3)c2)C1 (stereo not given)	< 0.1 µM
CN1Cc2c(Cl)cc(Cl)cc2C(c2cccc(S(=O)(=O)NCCOCCOCCOCCOCCOCCOCCOCCOCCOCCOCCNC(=O)CCOCCOCCOCCOCCOCCOCCOCCOCCOCCC(=O)NCCOCCOCCOCCOCCOCCOCCOCCOCCOCCOCCNS(=O)(=O)c3cccc(C4CN(C)Cc5c(Cl)cc(Cl)cc54)c3)c2)C1 (stereo not given)	in the range around 0.316 µM
NC(N)=Nc1nc(-c2cccc(N3CCN(CCO)CC3)c2)c2cc(Cl)ccc2n1	in the range around 0.316 µM
CN1Cc2c(Cl)cc(Cl)cc2[C@H](c2ccc(S(=O)(=O)NCCOCCOCCNC(=O)COCC(=O)NCCOCCOCCNS(=O)(=O)c3ccc([C@@H]4CN(C)Cc5c(Cl)cc(Cl)cc54)cc3)cc2)C1 (single isomer, unassigned)	< 0.1 µM
C/C(=C\c1cc(F)c(Oc2ccc(S(=O)(=O)NCCCP(=O)(O)O)cc2)c(F)c1)C(=O)N=C(N)N	in the range around 3.16 µM
